Entries after “also recorded” stand apart in the source; their conditions may differ.
Tests used:
[1] = molecular target: T1, NGF (Homo sapiens, UniProt P01138); details: cell culture models; cited from earlier work
[2] = test system: adult patients with chronic low back pain; assay: Study 1059, Phase 3: efficacy (LBPI, RMDQ) in chronic low back pain; format: in vivo, human
Method: The Low Back Pain Intensity (LBPI) measure is assessed with an 11-point numeric rating scale ranging from 0 (no pain) to 10 (worst possible pain). The LBPI score can be the daily average LBPI score.
The Roland Morris Disability Questionnaire (RMDQ) is an index of how well subjects with low back pain are able to function with regard to daily activities (Roland M, Fairbank. The Roland-Morris Questionnaire and the Oswestry Disability Questionnaire. Spine. 2000; 25 (4)3115-3124). It is a low back pain-specific assessment of physical function with scores ranging from 0 to 24 (lower scores indicate better function).
(§1) Patients were also required to have documented history of previous inadequate treatment response to at least 3 different categories of agents commonly used and generally considered effective for the treatment of chronic low back pain. Patients were required to discontinue all medications for the treatment of chronic low back pain during the primary efficacy assessment period (up to Week 16).
Approximately 1800 patients were planned to be randomized initially in a 2:2:2:3 ratio to 1 of 4 following treatment groups:
1. Placebo administered SC at an 8-week interval plus placebo matching tramadol PR up to Week 16. At the Week 16 visit, patients in this group were switched in a blinded fashion in a 1:1 ratio to either tanezumab 5 mg or tanezumab 10 mg administered SC at an 8 week interval plus placebo matching tramadol PR to Week 56;
2. Tanezumab 5 mg SC administered at an 8-week interval plus placebo matching tramadol PR to Week 56;
3. Tanezumab 10 mg SC administered at an 8-week interval plus placebo matching tramadol PR to Week 56;
4. Oral tramadol PR 100-300 mg daily plus placebo administered SC at an 8-week interval to Week 56.
To achieve the initial randomization and intended re-randomization at Week 16 for placebo patients, a randomization ratio 1:1:2:2:3 for placebo→tanezumab 5 mg (at Week 16), placebo→tanezumab 10 mg (at Week 16), tanezumab 5 mg, tanezumab 10 mg, and tramadol PR was used at the beginning of the trial.
Table 2 summarizes the requirements for analgesic medication usage prior to Screening and the requirements for LBPI and Patient's Global Assessment (PGA) of CLBP. The current study enrolled patients who were more refractory to standard of care treatments for CLBP and had higher LBPI scores at Baseline.

[3] = test system: subjects with chronic low back pain (CLBP); details: in vivo
Method: This second study (termed “Study 1063) was a randomized, double-blind, active-controlled, multicenter, parallel-group Phase 3 study in Japan to evaluate the safety and efficacy of tanezumab when administered by SC injection for up to 56 weeks in subjects with chronic low back pain (CLBP). […] Patients were also required to be experiencing some benefit from their current stable dose regimen of oral therapy of NSAID (celecoxib 200 mg/day [100 mg BID], loxoprofen 120 to 180 mg/day or meloxicam 5 to 15 mg/day) treatment, but still required additional pain relief at screening. […] Patients with a diagnosis of osteoarthritis of the knee or hip as defined by the American College of Rheumatology combined clinical and radiographic criteria or who had Kellgren Lawrence Grade ≥2 radiographic evidence of hip osteoarthritis or Kellgren Lawrence Grade ≤3 radiographic evidence of knee osteoarthritis were excluded.
Treatment groups were as follows: 1. Tanezumab 5 mg SC and placebo for celecoxib BID; 2. Tanezumab 10 mg SC and placebo for celecoxib BID; 3. Placebo for tanezumab SC and celecoxib BID.
This study was designed with a total (post-randomization) duration of 80 weeks and consisted of three periods: (1) a Screening period (up to a maximum of 37 days), (2) a Double-blind Treatment period (56 weeks), and (3) a Safety Follow-up (24 weeks) Period (FIG. 8). The Screening Period included a Washout Period (lasting 2-32 days) if required, and an Initial Pain Assessment Period (IPAP) (5 days prior to Randomization/Baseline; minimum 4 days).
The Safety analysis set included all patients who received at least one dose of SC study treatment. This analysis set was primary for all safety endpoints, which were analyzed according to treatment received, and was labeled as the ‘Safety population’. In this study, the ITT and Safety analysis sets were identical.

[4] = test system: subjects with chronic low back pain (CLBP); assay: Study 1063, Phase 3 in Japan: efficacy (LBPI, RMDQ) in chronic low back pain; format: in vivo, human
Method: Patients received a total of seven SC injections, separated by 8 weeks (tanezumab or
Treatment groups were as follows: 1. […] Placebo for tanezumab SC and celecoxib BID.
The Intent-to-Treat (ITT) analysis set included all patients who were randomized and received at least one dose of SC study medication (either tanezumab or placebo). This analysis set was primary for all efficacy endpoints, which were analyzed according to randomization assignment, and was labeled as the ‘ITT population’.

[5] = test system: adult patients with chronic low back pain; assay: Study 1059: adverse events and adjudicated joint safety; format: in vivo, human; details: for incidence of discontinuations from treatment due to an adverse event / incidence of serious adverse events / overall incidence of adverse events: 56-week treatment period
From the text: For subjects who are identified with a possible or probable joint event (i.e., rapidly progressive osteoarthritis, subchondral insufficiency fractures, spontaneous osteonecrosis of the knee (SPONK), primary osteonecrosis or pathological fracture) and subjects undergoing total joint replacement for any reason, all images and other source documentation may be provided to the blinded Adjudication Committee for review and adjudication of the event. The Adjudication Committee's assessment of the event may represent the final classification of the event.
as §1

[6] = test system: OA; details: tanezumab 2.5-5 mg combined, N = 2000; cited from earlier work
[7] = molecular target: T1, NGF; details: cited from earlier work
[8] = 5 mg SC every 8 weeks, listed as Tan
[9] = 10 mg SC every 8 weeks, listed as Tan
[10] = tanezumab 5-10 mg combined, N = 1008

T1 sequence (P01138 122-241): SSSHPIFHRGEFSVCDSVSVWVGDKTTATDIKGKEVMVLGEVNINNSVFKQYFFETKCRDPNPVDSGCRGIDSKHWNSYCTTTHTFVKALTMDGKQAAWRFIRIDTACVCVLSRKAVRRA

## tanezumab: humanized IgG2 monoclonal antibody directed against human nerve growth factor (NGF); heavy chain SEQ ID NO: 9 or 11, light chain SEQ ID NO: 10
[1]
  blocking of the activity of NGF: blocks the activity of NGF effectively
[2]; 5 mg SC every 8 weeks
  LBPI at week 56, LS mean difference versus tramadol: −0.11
  LBPI change from Baseline to Week 2, Difference vs. plc: −0.37
  LBPI change from Baseline to Week 2, LS Mean: −1.54
  LBPI change from Baseline to Week 16, Difference vs. plc: No statistically significant improvement
  LBPI change from Baseline to Week 16, LS Mean: −2.98
  Proportion of patients with ≥50% improvement in LBPI at Week 16: (43.3) %
  RMDQ at week 56, LS mean difference versus tramadol: −0.44
  RMDQ change from Baseline to Week 16, Difference vs. plc: larger improvement in RMDQ versus placebo treatment
  RMDQ change from Baseline to Week 16, LS Mean: −6.27
  percentage of patients achieving ≥30% improvement in LBPI at week 16: 64.8%
  ≥30% improvement in LBPI at week 16, odds ratio versus placebo: 1.45
  ≥30% improvement in LBPI at week 16, odds ratio versus tramadol: 1.34
  ≥50% improvement in LBPI at Week 16, OR vs. plc: 1.28
[2]; [8]
  LBPI change from Baseline to Week 16, Difference vs. plc: −0.30
  RMDQ change from Baseline to Week 16, Difference vs. plc: −1.32
[2]; 10 mg SC every 8 weeks
  LBPI at week 56, LS mean difference versus tramadol: −0.21
  LBPI change from Baseline to Week 2, Difference vs. plc: onset of effect at Week 2
  LBPI change from Baseline to Week 2, LS Mean: −1.59
  LBPI change from Baseline to Week 16, Difference vs. plc: statistically significant improvement
  LBPI change from Baseline to Week 16, LS Mean: −3.08
  Proportion of patients with ≥50% improvement in LBPI at Week 16: (46.3) %
  RMDQ at week 56, LS mean difference versus tramadol: −0.83
  RMDQ change from Baseline to Week 16, Difference vs. plc: superior improvement in physical function
  RMDQ change from Baseline to Week 16, LS Mean: −6.69
  percentage of patients achieving ≥30% improvement in LBPI at week 16: 65.5%
  ≥30% improvement in LBPI at week 16, odds ratio versus placebo: 1.50
  ≥30% improvement in LBPI at week 16, odds ratio versus tramadol: 1.38
  ≥50% improvement in LBPI at Week 16, OR vs. plc: superior responder rate
[2]; [9]
  LBPI change from Baseline to Week 2, Difference vs. plc: −0.42
  LBPI change from Baseline to Week 16, Difference vs. plc: −0.40
  RMDQ change from Baseline to Week 16, Difference vs. plc: −1.74
  ≥50% improvement in LBPI at Week 16, OR vs. plc: 1.45
[3]
  severity of abnormal peripheral sensation adverse events: mild in severity
  severity of potential sympathetic dysfunction events: mild in severity
[4]; 5 mg SC every 8 weeks
  Proportion of Patients with ≥50% Improvement in LBPI at Week 16 (Mixed BOCF/LOCF): (51.1%)
  Proportion with ≥50% Improvement in LBPI at Week 16, Difference vs. celecoxib: 18.5
[4]; 5 mg SC every 8 weeks, ITT
  Change from Baseline to Week 16 in LBPI (Multiple Imputation), LS Mean: −2.91
  Change from Baseline to Week 16 in RMDQ (Multiple Imputation), LS Mean: −3.85
  Change from Baseline to Week 16 in RMDQ, LS Mean Difference vs. celecoxib: −0.01
[4]; 5 mg group relative to both the tanezumab 10 mg and the celecoxib groups
  treatment differences for change from baseline to Week 56 for LBPI and RMDQ: numerically larger
[4]; 10 mg SC every 8 weeks
  Proportion of Patients with ≥50% Improvement in LBPI at Week 16 (Mixed BOCF/LOCF): (35.5%)
  Proportion with ≥50% Improvement in LBPI at Week 16, Difference vs. celecoxib: 2.9
[4]; 10 mg SC every 8 weeks, ITT
  Change from Baseline to Week 16 in LBPI (Multiple Imputation), LS Mean: −2.51
  Change from Baseline to Week 16 in RMDQ (Multiple Imputation), LS Mean: −4.38
[5]; 5 mg
  incidence of adverse events of potential sympathetic dysfunction: 5.9%
  incidence of carpal tunnel syndrome: 1.0%
  incidence of hypoaesthesia: 3.0%
  incidence of discontinuations from treatment due to an adverse event: 6.7%
  incidence of serious adverse events: 2.2%
  overall incidence of adverse events: 58.3%
[5]; 5 mg SC every 8 weeks
  incidence of composite joint safety endpoint: 1.0%
  observation-time adjusted rate of composite joint safety endpoint: 10.0 events/1000 patient-years
  patients adjudicated to normal progression of OA, number: 1 patient
  patients with joint safety event adjudicated to RPOA Type 1: 1.0%
  patients with joint safety event adjudicated to RPOA Type 1, number: 5 patients
[5]; 10 mg
  incidence of adverse events of potential sympathetic dysfunction: 6.4%
  incidence of carpal tunnel syndrome: 1.6%
  incidence of hypoaesthesia: 3.8%
  incidence of discontinuations from treatment due to an adverse event: 7.4%
  incidence of serious adverse events: 4.6%
  overall incidence of adverse events: 63.7%
[5]; 10 mg SC every 8 weeks
  incidence of composite joint safety endpoint: 2.6%
  observation-time adjusted rate of composite joint safety endpoint: 25.7 events/1000 patient-years
  patients adjudicated to normal progression of OA, number: 1 patient
  patients with joint safety event adjudicated to RPOA Type 1: 1.4%
  patients with joint safety event adjudicated to RPOA Type 1, number: 7 patients
  patients with joint safety events adjudicated to RPOA Type 2: 0.4%
  patients with joint safety events adjudicated to RPOA Type 2, number: Two
  patients with subchondral insufficiency fracture: 0.8%
  patients with subchondral insufficiency fracture, number: Four and four
  patients with total joint replacement during study observation period, number: 7 patients
[5]; [10]
  Primary Osteonecrosis, n (%): 0 n (%)
  RPOA Type 1: (1.2%)
  RPOA Type 2: (0.2%)
  Subchondral Insufficiency Fracture: (0.4%)
[5]; tanezumab-treated patients (5 and 10 mg combined), 80-week observation period
  patients with joint safety event requiring adjudication: 2.6%
[6]
  Primary Osteonecrosis: (0.1%)
  RPOA: (4.8%)
  RPOA Type 1: (3.9%)
  RPOA Type 2: (0.9%)
  Subchondral Insufficiency Fracture: (0.7%)
[7]
  binding to NGF: high specificity and affinity; also recorded: high affinity and specificity
